# Results as given in US9028856B2, “Synergistic pesticide compositions” (priority 2008, dated 2015).
# Entries after “also recorded” stand apart in the source; their conditions may differ.
# System: tropical house mosquito Culex quinquefasciatus (adults, 3 days old)
# Assay: Efficacy of formulations on surfaces (glazed/unglazed tiles, plywood), ten 3 day old mosquitoes, 3 min exposure
# Format: in vivo
# Conditions: for efficacy enhancement of the insecticide by the additive (summary in words): Culex quinquefasciatus, 3 min exposure, mostly 0.1% bendiocarb + 1% additive on glazed tiles
# Procedure: The ingredients were diluted in acetone to give a concentration which corresponds to the desired quantity of a.i./m^2. A 1 ml quantity of the solution was applied by pipette onto the 15 cm×15 cm surfaces without treating the outer edge of 1 cm.
# (§1) Ten 3 day old Culex quinquefasciatus mosquitoes were exposed to each treatment for 3 minutes under a perforated petri dish, and then a clean untreated white paper index card was moved between treated surface and petri dish. A water-soaked cotton pad was applied immediately after.
# Each test consisted of three replicates (three batches of ten mosquitoes were exposed for three minutes to the same surface, each one hour later), of which the mean values are calculated.
# The test insects were Culex quinquefasciatus (adults, 3 days old). The compositions were evaluated for their ability to provide effective knock down after 3, 9, 15, and 30 minutes, 1, 2, 3, 4 and 24 hours (mortality). The experiments were performed in triplicate on glazed tile, but not repeated on wood.
# Test Insects are Culex quinquefasciatus (adults, 3 days old). The Application provides the technical compounds were dissolved in acetone and applied as 1 ml solutions onto glazed tiles (15 cm×15 cm). An evaluation is provided at knock down after 3, 9, 15, and 30 minutes, 1, 2, 3, 4 and 24 hours (mortality). There are 3 replicates.
# Test Insects: Culex quinquefasciatus (adults, 3 days old)
# Application: The technical compounds were dissolved in acetone and applied as 1 ml solutions onto glazed tiles (15 cm×15 cm).
# Evaluation: Knock down after 3, 9, 15, and 30 minutes, 1, 2, 3, 4 and 24 hours (mortality) […]
# Application: The active ingredients were applied as 1 ml acetone solutions onto glazed tiles (15 cm×15 cm) […]
# as §1, with “For the mosquitoes, the USDA Petri Dish Method is used. Ten” for “Ten”, “are” for “were”, “dish” for “dish,”, “is” for “was”, “after. […]” for “after.”
# [1] = 3′, in acetone on glazed tiles, Table 84
# [2] = 9′, in acetone on glazed tiles, Table 84
# [3] = 15′, in acetone on glazed tiles, Table 84
# [4] = 30′, in acetone on glazed tiles, Table 84
# [5] = 1 h, in acetone on glazed tiles, Table 84
# [6] = 2 h, in acetone on glazed tiles, Table 84
# [7] = 3 h, in acetone on glazed tiles, Table 84
# [8] = 4 h, in acetone on glazed tiles, Table 84
# [9] = 24 h (mortality), in acetone on glazed tiles, Table 84
structure (smiles),measurement,setting,value
"CC1(C)CC(O)CC(C)(C)N1[O] [Derivative 9, 4-Hydroxy-2,2,6,6 tetramethylpiperidin-1-oxyl]",efficacy enhancement of the insecticide by the additive (summary in words),,acted weaker in both tests
same,efficacy enhancement of the insecticide by the additive (summary in words),"listed as 4-Hydroxy-2,2,6,6 tetramethylpiperidin-1-oxyl (free radical)",inhibited the efficacy of bendiocarb
O=C(CCCCCCCCC(=O)OCc1ccccc1)OCc1ccccc1 [1% Sebacic acid dibenzyl ester],% KD and Mortality,[1],0%
same,% KD and Mortality,[2],0%
same,% KD and Mortality,[3],0%
same,% KD and Mortality,[4],0%
same,% KD and Mortality,[5],0%
same,% KD and Mortality,[6],0%
same,% KD and Mortality,[7],3%
same,% KD and Mortality,[8],3%
same,% KD and Mortality,[9],7%
O=C1O[C@H]([C@@H](O)CO)C(O)=C1O [ascorbic acid],efficacy enhancement of the insecticide by the additive (summary in words),details as worded,complete decrease of efficacy
"CN1C(C)(C)CC(O)CC1(C)C [Derivative 8, 1,2,2,6,6-Pentamethyl-4-piperidinol]",efficacy enhancement of the insecticide by the additive (summary in words),details as worded,acted weaker in both tests
same,efficacy enhancement of the insecticide by the additive (summary in words),"details as worded, listed as 1,2,2,6,6-Pentamethyl-4-piperidinol",no efficacy enhancement
"CCCCCCCCON1C(C)(C)CC(OC(=O)CCCCCCCCC(=O)OC2CC(C)(C)N(OCCCCCCCC)C(C)(C)C2)CC1(C)C [Derivative 5, Bis(1-octyloxy-2,2,6,6-tetramethyl-4-piperidyl)sebacate]",efficacy enhancement of the insecticide by the additive (summary in words),details as worded,weaker as Compound A in both tests
same,efficacy enhancement of the insecticide by the additive (summary in words),"details as worded, listed as bis(1-octyloxy-2,2,6,6-tetramethyl-4-piperidyl)sebacate",inhibited the efficacy of bendiocarb
CNC(=O)Oc1cccc2c1OC(C)(C)O2 [0.1% bendiocarb],% KD and Mortality,[1],0%
same,% KD and Mortality,"3′, solvent 2006-009114 (EC formulation), glazed tiles, Table 83",10%
same,% KD and Mortality,"3′, solvent Acetone + 0.05% citric acid, glazed tiles, Table 83",13%
same,% KD and Mortality,"3′, solvent Acetone, glazed tiles, Table 83",3%
same,% KD and Mortality,"3′, solvent Ethylacetate, glazed tiles, Table 83",0%
same,% KD and Mortality,"3′, solvent Methanol, glazed tiles, Table 83",0%
same,% KD and Mortality,[2],0%
same,% KD and Mortality,"9′, solvent 2006-009114 (EC formulation), glazed tiles, Table 83",17%
same,% KD and Mortality,"9′, solvent Acetone + 0.05% citric acid, glazed tiles, Table 83",33%
same,% KD and Mortality,"9′, solvent Acetone, glazed tiles, Table 83",3%
same,% KD and Mortality,"9′, solvent Ethylacetate, glazed tiles, Table 83",3%
same,% KD and Mortality,"9′, solvent Methanol, glazed tiles, Table 83",0%
same,% KD and Mortality,[3],3%
same,% KD and Mortality,"15′, solvent 2006-009114 (EC formulation), glazed tiles, Table 83",23%
same,% KD and Mortality,"15′, solvent Acetone + 0.05% citric acid, glazed tiles, Table 83",70%
same,% KD and Mortality,"15′, solvent Acetone, glazed tiles, Table 83",3%
same,% KD and Mortality,"15′, solvent Ethylacetate, glazed tiles, Table 83",7%
same,% KD and Mortality,"15′, solvent Methanol, glazed tiles, Table 83",0%
same,% KD and Mortality,[4],17%
same,% KD and Mortality,"30′, solvent 2006-009114 (EC formulation), glazed tiles, Table 83",27%
same,% KD and Mortality,"30′, solvent Acetone + 0.05% citric acid, glazed tiles, Table 83",97%
same,% KD and Mortality,"30′, solvent Acetone, glazed tiles, Table 83",13%
same,% KD and Mortality,"30′, solvent Ethylacetate, glazed tiles, Table 83",27%
same,% KD and Mortality,"30′, solvent Methanol, glazed tiles, Table 83",13%
same,% KD and Mortality,[5],50%
same,% KD and Mortality,"1 h, solvent 2006-009114 (EC formulation), glazed tiles, Table 83",43%
same,% KD and Mortality,"1 h, solvent Acetone + 0.05% citric acid, glazed tiles, Table 83",97%
same,% KD and Mortality,"1 h, solvent Acetone, glazed tiles, Table 83",77%
same,% KD and Mortality,"1 h, solvent Ethylacetate, glazed tiles, Table 83",50%
same,% KD and Mortality,"1 h, solvent Methanol, glazed tiles, Table 83",57%
same,% KD and Mortality,[6],73%
same,% KD and Mortality,"2 h, solvent 2006-009114 (EC formulation), glazed tiles, Table 83",87%
same,% KD and Mortality,"2 h, solvent Acetone + 0.05% citric acid, glazed tiles, Table 83",97%
same,% KD and Mortality,"2 h, solvent Acetone, glazed tiles, Table 83",100%
same,% KD and Mortality,"2 h, solvent Ethylacetate, glazed tiles, Table 83",73%
same,% KD and Mortality,"2 h, solvent Methanol, glazed tiles, Table 83",73%
same,% KD and Mortality,[7],80%
same,% KD and Mortality,"3 h, solvent 2006-009114 (EC formulation), glazed tiles, Table 83",93%
same,% KD and Mortality,"3 h, solvent Acetone + 0.05% citric acid, glazed tiles, Table 83",100%
same,% KD and Mortality,"3 h, solvent Acetone, glazed tiles, Table 83",100%
same,% KD and Mortality,"3 h, solvent Ethylacetate, glazed tiles, Table 83",70%
same,% KD and Mortality,"3 h, solvent Methanol, glazed tiles, Table 83",73%
same,% KD and Mortality,[8],90%
same,% KD and Mortality,"4 h, solvent 2006-009114 (EC formulation), glazed tiles, Table 83",97%
same,% KD and Mortality,"4 h, solvent Acetone + 0.05% citric acid, glazed tiles, Table 83",100%
same,% KD and Mortality,"4 h, solvent Acetone, glazed tiles, Table 83",100%
same,% KD and Mortality,"4 h, solvent Ethylacetate, glazed tiles, Table 83",80%
same,% KD and Mortality,"4 h, solvent Methanol, glazed tiles, Table 83",73%
same,% KD and Mortality,[9],100%
same,% KD and Mortality,"24 h (mortality), solvent 2006-009114 (EC formulation), glazed tiles, Table 83",97%
same,% KD and Mortality,"24 h (mortality), solvent Acetone + 0.05% citric acid, glazed tiles, Table 83",100%
same,% KD and Mortality,"24 h (mortality), solvent Acetone, glazed tiles, Table 83",100%
same,% KD and Mortality,"24 h (mortality), solvent Ethylacetate, glazed tiles, Table 83",80%
same,% KD and Mortality,"24 h (mortality), solvent Methanol, glazed tiles, Table 83",87%
"O=C(CCCCCCCCC(=O)ON1C(=O)CCC1=O)ON1C(=O)CCC1=O [Derivative 4, Sebacic acid-bis-(N-succinimidyl)ester]",efficacy enhancement of the insecticide by the additive (summary in words),details as worded,weaker as Compound A in both tests
same,efficacy enhancement of the insecticide by the additive (summary in words),"details as worded, listed as Sebacic acid-bis-(N-succinimidyl)ester",equivalent to Compound A
"CC1(C)CC(OC(=O)CCCCCCCCC(=O)OC2CC(C)(C)NC(C)(C)C2)CC(C)(C)N1 [Derivative 6, Bis(2,2,6,6-tetramethyl-4-piperidyl)sebacate]",efficacy enhancement of the insecticide by the additive (summary in words),details as worded,inhibited the efficacy of bendiocarb in both tests
same,efficacy enhancement of the insecticide by the additive (summary in words),"details as worded, listed as bis(2,2,6,6-tetramethyl-4-piperidyl)sebacate",inhibited the efficacy of bendiocarb
"O=C(O)CCCCCCCCC(=O)O [Derivative 2, Sebacic acid]",efficacy enhancement of the insecticide by the additive (summary in words),"details as worded, listed as Sebacic acid",no efficacy enhancement
same,efficacy enhancement of the insecticide by the additive (summary in words),"details as worded, listed as derivative 2",acted weaker in both tests
"CN1C(C)(C)CC(O)CC1(C)C [1% 1,2,2,6,6-Pentamethyl-4-piperidinol]",% KD and Mortality,[1],0%
same,% KD and Mortality,[2],0%
same,% KD and Mortality,[3],0%
same,% KD and Mortality,[4],0%
same,% KD and Mortality,[5],0%
same,% KD and Mortality,[6],0%
same,% KD and Mortality,[7],0%
same,% KD and Mortality,[8],0%
same,% KD and Mortality,[9],0%
"O=C(CCCCCCCCC(=O)OCc1ccccc1)OCc1ccccc1 [Derivative 3, Sebacic acid dibenzyl ester]",efficacy enhancement of the insecticide by the additive (summary in words),details as worded,superior to Compound A (first test) or equal (second test)
same,efficacy enhancement of the insecticide by the additive (summary in words),"details as worded, listed as Sebacic acid dibenzyl ester",superior to Compound A; also recorded: improved markedly the efficacy of bendiocarb
COC(=O)CCCCCCCCC(=O)OC [1% Dimethyl sebacate],% KD and Mortality,[1],0%
same,% KD and Mortality,[2],0%
same,% KD and Mortality,[3],0%
same,% KD and Mortality,[4],0%
same,% KD and Mortality,[5],0%
same,% KD and Mortality,[6],0%
same,% KD and Mortality,[7],0%
same,% KD and Mortality,[8],0%
same,% KD and Mortality,[9],0%
CCCCCCCCON1C(C)(C)CC(OC(=O)CCCCCCCCC(=O)OC2CC(C)(C)N(OCCCCCCCC)C(C)(C)C2)CC1(C)C,% KD and Mortality,[1],3%
same,% KD and Mortality,[2],3%
same,% KD and Mortality,[3],3%
same,% KD and Mortality,[4],3%
same,% KD and Mortality,[5],3%
same,% KD and Mortality,[6],3%
same,% KD and Mortality,[7],3%
same,% KD and Mortality,[8],3%
same,% KD and Mortality,[9],7%
CC1(C)CC(O)CC(C)(C)N1[O],% KD and Mortality,[1],0%
same,% KD and Mortality,[2],0%
same,% KD and Mortality,[3],0%
same,% KD and Mortality,[4],0%
same,% KD and Mortality,[5],0%
same,% KD and Mortality,[6],0%
same,% KD and Mortality,[7],0%
same,% KD and Mortality,[8],0%
same,% KD and Mortality,[9],7%
